Reference: PubChem BioAssay AID248 (DTP/NCI, 2004)
Values joined by “and” are separate entries in the source; they are usually repeats but may differ in a detail not shown here. Equal entries are not always repeated. Toxic doses and inconclusive results are not listed.

Tested on: L1210 leukemia ip in BDF1 mice, survival T/C
Experiment: NCI In Vivo Anticancer Drug Screen. Data for tumor model L1210 Leukemia (intraperitoneal) in B6D2F1 (BDF1) mice
Details: endpoint: mean survival time, higher = longer survival
In short: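 Mice bearing the transplanted tumor received compound or vehicle. Survival of the treated group was divided by that of the vehicle-treated control group to give the ratio.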

[1] = dose: 100.0 mg/kg/injection, schedule: Q04DX003 (ip), vehicle: acetone
[2] = dose: 200.0 mg/kg/injection, schedule: Q04DX003 (ip), vehicle: acetone
[3] = dose: 400.0 mg/kg/injection, schedule: Q04DX003 (ip), vehicle: acetone
[4] = dose: 100.0 mg/kg/injection, schedule: Q01DX009 (ip), vehicle: Klucel (hydroxypropylcellulose) (HPC)
[5] = dose: 200.0 mg/kg/injection, schedule: Q01DX009 (ip), vehicle: Klucel (hydroxypropylcellulose) (HPC)

For CCCCCCCCC1NC1CCCCCCCC(=O)OC (stereo not drawn), the T/C (dose: 25.0 mg/kg/injection, schedule: Q04DX002 (ip), vehicle: Klucel (hydroxypropylcellulose) (HPC)) was 101 % of control, the T/C (dose: 50.0 mg/kg/injection, schedule: Q04DX002 (ip), vehicle: Klucel (hydroxypropylcellulose) (HPC)) was 107 % of control and the T/C (dose: 100.0 mg/kg/injection, schedule: Q04DX002 (ip), vehicle: Klucel (hydroxypropylcellulose) (HPC)) was 98 % of control.

For O=C1CCC(=O)N1c1ccc(I)cc1, the T/C (dose: 50.0 mg/kg/injection, schedule: Q01DX001 (ip), vehicle: carboxymethylcellulose (CMC)) was 96 % of control, the T/C (dose: 100.0 mg/kg/injection, schedule: Q01DX001 (ip), vehicle: carboxymethylcellulose (CMC)) was 98 % of control and the T/C (dose: 200.0 mg/kg/injection, schedule: Q01DX001 (ip), vehicle: carboxymethylcellulose (CMC)) was 93 % of control. The T/C (dose: 400.0 mg/kg/injection, schedule: Q01DX001 (ip), vehicle: carboxymethylcellulose (CMC)) was 107 % of control.

With O=[N+]([O-])c1cccc(Cl)c1O the T/C (dose: 100.0 mg/kg/injection, schedule: Q01DX001 (ip), vehicle: gum acacia) was 98 % of control and the T/C (dose: 200.0 mg/kg/injection, schedule: Q01DX001 (ip), vehicle: gum acacia) was 100 % of control.

With CC1=NN(c2ccccc2)/C(=N/N=C(N)N)C1CC1C(C)=NN(c2ccccc2)/C1=N/N=C(N)N (stereo not drawn) the T/C (dose: 15.0 mg/kg/injection, schedule: Q01DX Z (ip), vehicle: carboxymethylcellulose (CMC)) was 102 % of control, the T/C (dose: 30.0 mg/kg/injection, schedule: Q01DX Z (ip), vehicle: carboxymethylcellulose (CMC)) was 97 % of control and the T/C (dose: 60.0 mg/kg/injection, schedule: Q01DX Z (ip), vehicle: carboxymethylcellulose (CMC)) was 100 % of control and 102 % of control. The T/C (dose: 120.0 mg/kg/injection, schedule: Q01DX Z (ip), vehicle: carboxymethylcellulose (CMC)) was 95 % of control and 96 % of control and the T/C (dose: 240.0 mg/kg/injection, schedule: Q01DX Z (ip), vehicle: carboxymethylcellulose (CMC)) was 91 % of control.

With CCCCCCCCCCCCCCCCCC[N+]1(CC)CCOCC1 the T/C (dose: 3.13 mg/kg/injection, schedule: Q04DX002 (ip), vehicle: carboxymethylcellulose (CMC)) was 103 % of control and 87 % of control, the T/C (dose: 6.25 mg/kg/injection, schedule: Q01DX001 (ip), vehicle: carboxymethylcellulose (CMC)) was 101 % of control and the T/C (dose: 6.25 mg/kg/injection, schedule: Q01DX009 (ip), vehicle: carboxymethylcellulose (CMC)) was 93 % of control and 95 % of control. The T/C (dose: 6.25 mg/kg/injection, schedule: Q04DX002 (ip), vehicle: carboxymethylcellulose (CMC)) was 100 % of control and 92 % of control, the T/C (dose: 6.25 mg/kg/injection, schedule: Q04DX003 (ip), vehicle: carboxymethylcellulose (CMC)) was 98 % of control and the T/C (dose: 12.5 mg/kg/injection, schedule: Q01DX001 (ip), vehicle: carboxymethylcellulose (CMC)) was 94 % of control. The T/C (dose: 12.5 mg/kg/injection, schedule: Q01DX009 (ip), vehicle: carboxymethylcellulose (CMC)) was 93 % of control and 89 % of control, the T/C (dose: 12.5 mg/kg/injection, schedule: Q04DX003 (ip), vehicle: carboxymethylcellulose (CMC)) was 100 % of control and the T/C (dose: 25.0 mg/kg/injection, schedule: Q01DX001 (ip), vehicle: carboxymethylcellulose (CMC)) was 90 % of control. The T/C (dose: 25.0 mg/kg/injection, schedule: Q04DX002 (ip), vehicle: carboxymethylcellulose (CMC)) was 94 % of control and 92 % of control and the T/C (dose: 25.0 mg/kg/injection, schedule: Q04DX003 (ip), vehicle: carboxymethylcellulose (CMC)) was 89 % of control.

In the case of CNC(=O)Oc1ccc2ccccc2c1, the T/C (dose: 100.0 mg/kg/injection, schedule: Q01DX009 (ip), vehicle: other) is reported as 101 % of control, the T/C (dose: 200.0 mg/kg/injection, schedule: Q01DX009 (ip), vehicle: other) is reported as 104 % of control and the T/C (dose: 400.0 mg/kg/injection, schedule: Q01DX009 (ip), vehicle: other) is reported as 93 % of control.

Cc1cc(NC(=O)Nc2ccc(Cl)cc2Cl)no1 was tested, and the T/C (dose: 12.5 mg/kg/injection, schedule: Q01DX009 (ip), vehicle: saline with Tween-80) was 95 % of control, the T/C (dose: 25.0 mg/kg/injection, schedule: Q01DX009 (ip), vehicle: saline with Tween-80) was 91 % of control and the T/C (dose: 50.0 mg/kg/injection, schedule: Q01DX009 (ip), vehicle: saline with Tween-80) was 91 % of control and 92 % of control. For the same compound, the T/C (dose: 100.0 mg/kg/injection, schedule: Q01DX009 (ip), vehicle: saline with Tween-80) was 95 % of control and the T/C (dose: 200.0 mg/kg/injection, schedule: Q01DX009 (ip), vehicle: saline with Tween-80) was 95 % of control.

With N#CC(C#N)=Cc1ccco1 the T/C (dose: 5.0 mg/kg/injection, schedule: Q01DX001 (ip), vehicle: saline) was 91 % of control, the T/C (dose: 10.0 mg/kg/injection, schedule: Q01DX001 (ip), vehicle: saline) was 102 % of control and the T/C (dose: 20.0 mg/kg/injection, schedule: Q01DX001 (ip), vehicle: saline) was 100 % of control. For the same compound, the T/C (dose: 40.0 mg/kg/injection, schedule: Q01DX001 (ip), vehicle: saline) was 94 % of control.

In the case of O=C1c2ccccc2CCC1(Br)C(Br)c1ccccc1 (stereo not drawn), the T/C [1] is reported as 96 % of control, the T/C [2] is reported as 101 % of control and the T/C [3] is reported as 92 % of control.

With O=C(CCCC(=O)N/N=C/c1c[nH]c2ccc(Br)cc12)N/N=C\c1c[nH]c2ccc(Br)cc12 the T/C (dose: 50.0 mg/kg/injection, schedule: Q01DX001 (ip), vehicle: saline) was 105 % of control, the T/C (dose: 100.0 mg/kg/injection, schedule: Q01DX001 (ip), vehicle: saline) was 102 % of control and the T/C (dose: 200.0 mg/kg/injection, schedule: Q01DX001 (ip), vehicle: saline) was 107 % of control. The T/C (dose: 400.0 mg/kg/injection, schedule: Q01DX001 (ip), vehicle: saline) was 96 % of control.

With NC(=O)N/N=C\c1ccc(O)cn1 the T/C [1] was 98 % of control, the T/C [2] was 93 % of control and the T/C [3] was 96 % of control.

For COC(=O)c1c(OC)ccc2c1CC1C3Nc4ccccc4C3CCN1C2 (stereo not drawn), the T/C (dose: 100.0 mg/kg/injection, schedule: Q04DX003 (ip), vehicle: Klucel (hydroxypropylcellulose) (HPC)) was 94 % of control, the T/C (dose: 200.0 mg/kg/injection, schedule: Q04DX003 (ip), vehicle: Klucel (hydroxypropylcellulose) (HPC)) was 90 % of control and the T/C (dose: 400.0 mg/kg/injection, schedule: Q04DX003 (ip), vehicle: Klucel (hydroxypropylcellulose) (HPC)) was 90 % of control.

With CN(CCc1ccccc1)/N=N/c1nc[nH]c1C(N)=O the T/C (dose: 100.0 mg/kg/injection, schedule: Q01DX001 (ip), vehicle: saline with Tween-80) was 96 % of control, the T/C [4] was 102 % of control and the T/C (dose: 100.0 mg/kg/injection, schedule: Q04DX003 (ip), vehicle: saline with Tween-80) was 110 % of control. For the same compound, the T/C (dose: 118.0 mg/kg/injection, schedule: Q04DX003 (ip), vehicle: saline with Tween-80) was 101 % of control, the T/C (dose: 150.0 mg/kg/injection, schedule: Q01DX009 (ip), vehicle: saline with Tween-80) was 155 % of control and the T/C (dose: 177.0 mg/kg/injection, schedule: Q04DX003 (ip), vehicle: saline with Tween-80) was 115 % of control. The T/C (dose: 200.0 mg/kg/injection, schedule: Q01DX001 (ip), vehicle: saline with Tween-80) was 104 % of control, the T/C [5] was 103 % of control and the T/C (dose: 200.0 mg/kg/injection, schedule: Q04DX003 (ip), vehicle: saline with Tween-80) was 112 % of control. For the same compound, the T/C (dose: 300.0 mg/kg/injection, schedule: Q01DX009 (ip), vehicle: saline with Tween-80) was 163 % of control, the T/C (dose: 400.0 mg/kg/injection, schedule: Q01DX001 (ip), vehicle: saline with Tween-80) was 118 % of control and the T/C (dose: 400.0 mg/kg/injection, schedule: Q01DX009 (ip), vehicle: Klucel (hydroxypropylcellulose) (HPC)) was 113 % of control. The T/C (dose: 400.0 mg/kg/injection, schedule: Q04DX003 (ip), vehicle: saline with Tween-80) was 150 % of control and the T/C (dose: 600.0 mg/kg/injection, schedule: Q04DX003 (ip), vehicle: saline with Tween-80) was 179 % of control.

In the case of CCCC[P+](c1ccccc1)(c1ccccc1)c1ccccc1, the T/C (dose: 6.25 mg/kg/injection, schedule: Q04DX003 (ip), vehicle: saline) is reported as 107 % of control, the T/C (dose: 12.5 mg/kg/injection, schedule: Q01DX009 (ip), vehicle: Klucel (hydroxypropylcellulose) (HPC)) is reported as 114 % of control and the T/C (dose: 12.5 mg/kg/injection, schedule: Q01DX009 (ip), vehicle: saline) is reported as 113 % of control. The T/C (dose: 12.5 mg/kg/injection, schedule: Q04DX003 (ip), vehicle: saline) was 107 % of control, the T/C (dose: 25.0 mg/kg/injection, schedule: Q01DX009 (ip), vehicle: Klucel (hydroxypropylcellulose) (HPC)) was 112 % of control and the T/C (dose: 25.0 mg/kg/injection, schedule: Q01DX009 (ip), vehicle: saline) was 115 % of control. For the same compound, the T/C (dose: 25.0 mg/kg/injection, schedule: Q04DX003 (ip), vehicle: saline) was 105 % of control, the T/C (dose: 50.0 mg/kg/injection, schedule: Q01DX009 (ip), vehicle: Klucel (hydroxypropylcellulose) (HPC)) was 109 % of control and the T/C (dose: 50.0 mg/kg/injection, schedule: Q04DX003 (ip), vehicle: saline) was 104 % of control.

In the case of O=c1[nH][nH]c(-c2ccccc2)c1Cc1ccccc1, the T/C (dose: 100.0 mg/kg/injection, schedule: Q04DX003 (ip), vehicle: saline) is reported as 95 % of control, the T/C (dose: 200.0 mg/kg/injection, schedule: Q04DX003 (ip), vehicle: saline) is reported as 96 % of control and the T/C (dose: 400.0 mg/kg/injection, schedule: Q04DX003 (ip), vehicle: saline) is reported as 96 % of control.

With O=C1NN(c2ccccc2)CCO1 the T/C [4] was 100 % of control and the T/C [5] was 93 % of control.
